Laboratory results reported in patent publication US6958141B2, “Rhenium and technetium complexes containing a hypoxia-localizing moiety” (Bracco International B.V., priority 1991, dated 2005).

Assays:
[1] = Determination of reduction potential by cyclic voltammetry; format: physicochemical; conditions: for Epc(V): cyclic voltammetry in dimethylformamide at Hg, vs. Ag/AgNO3; for Reduction process: cyclic voltammetry in dimethylformamide
Method: The reduction potentials of misonidazole, ^99TcO(PnAO), and ^99Tc-hypoxia-localizing tracers were determined by cyclic voltammetry (C.V.) in dimethylformamide. […] The reference electrode was Ag/AgNO3 with an acetonitrile filling solution saturated with LiCl. The counter electrode was a platinum wire. Voltamograms at mercury were determined at scan rates of 50, 100, 200, and 500 mV/s.
The solutions used in C.V. studies contained test sample at a concentration of 0.2-0.7 mM and tetrabutylammonium tetrafluoroborate (Bu4NBF4) or tetrabutylammonium hexafluorophosphate (Bu4NPF6) supporting electrolyte at a concentration of 0.1M. The solution was deoxygenated by bubbling solvent-saturated nitrogen or argon through the solution for 15 minutes. Variations in the reference potential were accounted for by determining the C.V. of a Ru(acac)3 standard on a daily basis.

[2] = test system: Calcium-tolerant ventricular myocytes; assay: Isolated cardiac myocyte studies, retention of radioactivity; format: cell-based, male Sprague Dawley rats; conditions: isolated myocytes; for Anoxia/normoxia ratio: % in Cell Pellet; for % in Cell Pellet, Anoxia / % in Cell Pellet, Normoxia: several Tc-99m complexes
Source text: Calcium-tolerant ventricular myocytes were isolated from hearts of male Sprague Dawley rats (200 g) according to the procedure of Wittenberg and Robinson (B. A. Wittenberg and T. F. Robinson, Cell Tissue Res., 216: 231, 1981) with modifications described previously (W. Rumsey, C. Schlosser, E. M. Nuutinen, M. Robiolio and D. F. Wilson, J. Biol. Chem., 265 (26): 15392, 1990). Cells were used immediately following morphological analysis (using a hemocytometer) of viability and were maintained at 37° C. during the experiments. The number of quiescent, rod shaped cells ranged from 70-90% within a total population of 5-9×10^6 cells.
The isolated myocytes were maintained in either a normoxic, hypoxic or anoxic state. Hypoxia was induced by providing an atmosphere of argon atop of the cells and sealing the flask during the incubation period. Glucose oxidase plus catalase (5/5 mg) was added to argon treated cells to provide anoxia. Cells were suspended (6.5-7.5×10^4 cells/ml) in isolation media and aliquots were added to incubation vials maintained at 37° C.
After incubation with a test compound, myocytes were deproteinated with 1% ice-cold perchloric acid and centrifuged at 12,000 rpm for 30 sec. The supernatent was separated from the pellet and each counted using a LKB 1282 gamma counter. Alternatively, myocytes were separated from the suspending media by passing the cells through 99% dibutyl phthalate by centrifugation at 12,000 rpm for 30 sec. The three phases were separated and counted as described above. Results for the Tc-99m complex of the compound in Example 1 are given below:
Values represent means ±S.E.M. for the number of experiments noted in the parentheses. The values are the percent of total radioactivity represented by each case. PCA pellet=perchloric acid-precipitated pellet which represents the activity associated with proteins/membranes. Cell pellet=whole cells passed through a layer of dibutyl phthalate (oil).
Several Tc-99m complexes were examined in isolated myocytes using the protocol described above. The percentage of activity retained in the cell pellet was determined under anoxic and normoxic states.

[3] = test system: hypoxic ischemic border zone; assay: Rabbit focal myocardial ischemia model (LAD occlusion), double-label autoradiography; format: in vivo; conditions: permanent LAD coronary artery ligation, intravenous tracer, heart sections
Method: A model of focal myocardial ischemia in the rabbit was developed, using permanent ligation of the left anterior descending (LAD) coronary artery. The model consisted of two studies. In the first, relative regional myocardial blood flow (MBF) and relative regional myocardial rate of glucose metabolism (MMRgl) were determined by autoradiography using a double-label study with the flow tracer ^99mTcCl(CDO)3MeB (R. K. Narra et al., J. Nucl. Med., 1989; 30:1830-1837) and ^14C-deoxy-glucose for MMRgl (L. Sokoloff et al., J. Neurochem., 1977, 28, 897-916). ^14C-deoxyglucose and the ^99mTc-hypoxia-localizing tracer were administered to a second group of rabbits with LAD coronary artery occlusion.
After the surgical preparation and 20 minutes of LAD occlusion, ^14C-deoxyglucose (130-150 μCi) was injected as an intravenous bolus, and timed arterial blood samples were obtained. Twenty-five minutes later, ^99mTcCl(CDO)3MeB (10-12 mCi) was administered intravenously. Five minutes later, the rabbits were sacrificed by intravenous injection of Nembutal and potassium chloride. The heart was excised, frozen in liquid Freon-22, and 20 μm coronal sections obtained with a Microtome. Autoradiographs were obtained on all sections. For the first exposure (˜14 hours duration) of Kodak XAR film, extra heavy duty aluminum foil was interposed between the tissue and film to block completely the radiation emanating from ^14C to obtain the MBF information derived from ^99mTcCl(CDO)3MeB alone. After three days (to allow for decay of ^99mTc); a second autoradiograph was obtained without foil. The second exposure lasted 6-8 days, and,provided an image of the regional distribution of ^14C-deoxyglucose.
In a separate experiment using the rabbit LAD occlusion model and the double-label autoradiography procedures described above, the performance of the ^99mTc complex of the ligand described in Example 1 was compared to that of ^14C-misonidazole.

| Epc(V) ([1]; first or only reduction listed) | Reduction process ([1]; first or only reduction listed) | melting point | Compound | further results |
| --- | --- | --- | --- | --- |
| −1.81 V | reversible | – | CC(=NO)C(C)(C)NCCCNC(C)(C)C(Cn1cnc([N+](=O)[O-])c1)=NO [Example 2, 3,3,9,9-Tetramethyl-1-(4-nitro-1H-imidazo-1-yl)-4,8-diazaundecane-2,10-dione dioxime] | – |
| – | – | – | CC(=NO)C(C)(C)NCC(C)CNC(C)(C)C(C)=NO (stereo not drawn) [^99mTc Complex of 6-methyl-PnAO, ^99mTc-complexes of 6-methyl PnAO (3,3,6,9,9-pentamethyl-4,8-diazaundecane-2,10-dione dioxime), metal not drawn, reference compound] | Anoxia/normoxia ratio [2]: 1.3; % in Cell Pellet, Anoxia [2]: 22.7 (n = 1) %; % in Cell Pellet, Normoxia [2]: 17.4 (n = 1) %; regional myocardial distribution pattern (autoradiography) [3]: no differentiation of ischemic and non-ischemic regions |
| – | – | 62 to 64 °C | CC(=NO)C(C)(C)NCC(O)CNC(C)(C)C(CCn1ccnc1[N+](=O)[O-])=NO (stereo not drawn) [Example 32, 6-Hydroxy-3,3,9,9-tetramethyl-12-(2-nitro-1H-imidazol-1-yl)-4,8-diazadodecane-2,10-dione dioxime] | – |
| – | – | 90 to 92 °C | CC(=NO)C(C)(C)NCC(F)(F)CNC(C)(C)C(CCn1ccnc1[N+](=O)[O-])=NO [Example 30, 6,6-Difluoro-3,3,9,9-tetramethyl-12-(2-nitro-1H-imidazol-1-yl)-4,8-diazadodecane-2,10-dione dioxime] | – |
| – | – | 122 to 123 °C | CCOCC(=NO)C(C)(C)NCCCNC(C)(C)C(Cn1ccnc1[N+](=O)[O-])=NO [Example 25, 11-Ethoxy-3,3,9,9-tetramethyl-1-(2-nitro-1H-imidazol-1-yl)-4,8-diazaundecane-2,10-dione dioxime] | – |
| −1.54 V | reversible | – | CC(=NO)C(C)(C)NCCCNC(C)(C)C(CCn1ccnc1[N+](=O)[O-])=NO [Example 3, 4,4,10,10-Tetramethyl-1-(2-nitro-1H-imidazo-1-yl)-5,9-diazadodecane-3,11-dione dioxime] | – |
| – | – | 150 to 152 °C | CC(=NO)C(C)(C)NCCCNC(C)(C)C(Cn1c(C)cnc1[N+](=O)[O-])=NO [Example 28, 3,3,9,9-Tetramethyl-1-(5-methyl-2-nitro-1H-imidazol-1-yl)-4,8-diazaundecane-2,10-dione dioxime] | – |
| −1.53 V | reversible | – | CC1=[N+](O)[99Tc-]23(=[O])[N](CCC[N]2C1(C)C)C(C)(C)C(CCn1ccnc1[N+](=O)[O-])=[N+]3[O-] [Example 19, [^99Tc]Oxo[[4,4,10,10-tetramethyl-1-(2-nitro-1H-imidazo-1-yl)-5,9-diazadodecane-3,11-dione dioximato](3-)-N,N′,N″,N′″]technetium(V)] | Epc(V) ([1]; second reduction listed): −2.07 V; Reduction process ([1]; second reduction listed): irreversible |
| – | – | – | CC(=NO)C(C)(C)NCC(O)CNC(C)(C)C(C)=NO (stereo not drawn) [^99mTc Complex of 6-hydroxy-PnAO, 6-hydroxy PnAO(6-hydroxy-3,3,9,9-tetramethyl-4,8-diazaundecane-2,10-dione dioxime), metal not drawn, reference compound] | Anoxia/normoxia ratio [2]: 1.3; % in Cell Pellet, Anoxia [2]: 9.2 (n = 1) %; % in Cell Pellet, Normoxia [2]: 7.1 (n = 1) % |
| −1.81 V | reversible | – | CC1=[N+](O)[99Tc-]23(=[O])[N](CCC[N]2C1(C)C)C(C)(C)C(Cn1cnc([N+](=O)[O-])c1)=[N+]3[O-] [Example 6a, [^99Tc]Oxo[[3,3,9,9-tetramethyl-1-(4-nitro-1H-imidazo-1-yl)-4,8-diazaundecane-2,10-dione dioximato]-(3-)-N,N′,N″,N′″]technetium(V)] | Epc(V) ([1]; second reduction listed): −2.02 V; Reduction process ([1]; second reduction listed): irreversible |
| −1.62 V | reversible | – | Cc1ncc([N+](=O)[O-])n1CCO [Metronidazole, reference compound] | – |
| −1.52 V | reversible | – | CC(=NO)C(C)(C)NCC(CNC(C)(C)C(C)=NO)NC(=O)Cn1ccnc1[N+](=O)[O-] (stereo not drawn) [Example 5, 3,3,9,9-Tetramethyl-6-((2-nitro-1H-imidazo-1-yl)acetamido)-4,8-diazaundecane-2,10-dione dioxime] | – |
| −1.49 V | reversible | – | COCC(O)Cn1ccnc1[N+](=O)[O-] (stereo not drawn) [Misonidazole, reference compound] | – |
| −1.51 V | reversible | – | CC(=NO)C(C)(C)NCC(O)CNC(C)(C)C(Cn1ccnc1[N+](=O)[O-])=NO (stereo not drawn) [Example 4, 6-Hydroxy-3,3,9,9-tetramethyl-1-(2-nitro-1H-imidazo-1-yl)-4,8-diazaundecane-2,10-dione dioxime] | – |
| – | – | 134 to 135 °C | CC(=NO)C(C)(C)NCCCNC(C)(C)C(COCC(O)Cn1ccnc1[N+](=O)[O-])=NO (stereo not drawn) [Example 31, 3,3,9,9-Tetramethyl-1-[2-hydroxy-3-(2-nitro-1H-imidazol-1-yl)propoxy]-4,8-diazaundecane-2,10-dione dioxime] | – |
| – | – | 167 to 168 °C | CC(=NO)C(C)(C)NCC(C)CNC(C)(C)C(Cn1ccnc1[N+](=O)[O-])=NO (stereo not drawn) [Example 23, 3,3,6,9,9-Pentamethyl-1-(2-nitro-1H-imidazol-1-yl)-4,8-diazaundecane-2,10-dione dioxime] | – |
| – | – | 185 to 187 °C | CC(=NO)C(C)(C)NCC(CNC(C)(C)C(C)=NO)CC(O)Cn1ccnc1[N+](=O)[O-] (stereo not drawn) [Example 26, 3,3,9,9-Tetramethyl-6-[2-hydroxy-3-(2-nitro-1H-imidazol-1-yl)propyl]-4,8-diazaundecane-2,10-dione dioxime] | – |
| – | – | 140 to 141 °C | CC(=NO)C(C)(C)NCCCNC(C)(C)C(Cn1cc(C)nc1[N+](=O)[O-])=NO [Example 27, 3,3,9,9-Tetramethyl-1-(4-methyl-2-nitro-1H-imidazol-1-yl)-4,8-diazaundecane-2,10-dione dioxime] | – |
| – | – | 137 to 139 °C | COC(=O)CCC(=NO)C(C)(C)NCCCNC(C)(C)C(Cn1ccnc1[N+](=O)[O-])=NO [Example 24, 12-Methoxycarbonyl-3,3,9,9-tetramethyl-1-(2-nitro-1H-imidazol-1-yl)-4,8-diazadodecane-2,10-dione dioxime] | – |
| – | – | – | ^14C-misonidazole | regional myocardial distribution pattern (autoradiography) [3]: high uptake in the hypoxic border zone of the ischemic territory and low uptake in normoxic regions |

| Compound | Epc(V) ([1]; first or only reduction listed) | Reduction process ([1]; first or only reduction listed) | melting point | further results |
| --- | --- | --- | --- | --- |
| CC(=NO)C(C)(C)NCCCNC(C)(C)C(Cn1ccnc1[N+](=O)[O-])=NO [Example 1, 3,3,9,9-Tetramethyl-1-(2-nitro-1H-imidazo-1-yl)-4,8-diazaundecane-2,10-dione dioxime] | −1.52 V | reversible | – | – |
